Experimental findings from patent publication US11229633B2, “Arimoclomol formulation” (Orphazyme A/S, priority 2014, dated 2022) are described below.

A short description of series [1]: Physical properties of the drug substance. It is filed as physicochemical.
Series [2] addresses T1, OATP1B3 (Homo sapiens, UniProt Q9NPD5).
T1 sequence (Q9NPD5 1-702): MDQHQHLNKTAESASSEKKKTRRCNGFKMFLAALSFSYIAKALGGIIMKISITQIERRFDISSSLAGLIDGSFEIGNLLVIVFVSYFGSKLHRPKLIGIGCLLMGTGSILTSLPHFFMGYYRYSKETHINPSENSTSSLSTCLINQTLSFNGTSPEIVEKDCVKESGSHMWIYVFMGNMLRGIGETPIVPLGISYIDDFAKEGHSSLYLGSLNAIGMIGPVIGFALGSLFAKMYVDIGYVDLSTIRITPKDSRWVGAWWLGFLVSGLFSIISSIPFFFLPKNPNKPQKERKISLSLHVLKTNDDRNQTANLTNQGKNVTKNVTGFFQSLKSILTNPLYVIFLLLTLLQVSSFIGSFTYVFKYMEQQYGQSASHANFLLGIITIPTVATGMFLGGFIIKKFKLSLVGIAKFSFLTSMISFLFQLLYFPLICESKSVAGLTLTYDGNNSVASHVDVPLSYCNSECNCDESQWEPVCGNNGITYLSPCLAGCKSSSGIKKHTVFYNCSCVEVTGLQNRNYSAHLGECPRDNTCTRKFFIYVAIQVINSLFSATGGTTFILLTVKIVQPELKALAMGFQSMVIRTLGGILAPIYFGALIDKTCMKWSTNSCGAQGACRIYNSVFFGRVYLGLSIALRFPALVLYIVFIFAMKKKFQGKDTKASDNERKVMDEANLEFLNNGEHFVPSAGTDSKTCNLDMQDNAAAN
The experiment in a line: Uptake transporter inhibition assay, OATP1B3. It is filed as in vitro ADME. Also on record: expressed in transfected cells; host or cells: CHO (protocol UPT-CHO-OATP1B3-Fluo3; control: parental CHO-K1; 5 mM Na+ butyrate induction); key to maximum inhibition: NIO: No interaction observed. The conditions noted are these: for maximum inhibition: 0.3-300 μM. The protocol: (§1) Uptake experiments were performed using CHO, MDCKII, or HEK293 cells stably expressing the respective uptake transporters.
(§2) Cells were cultured at 37±1° C. in an atmosphere of 95:5 air:CO2 and were plated onto standard 96-well tissue culture plates at the cell number described in table 4.
(§3) Before the experiment, the medium was removed and the cells were washed twice with 100 μl of HK buffer at pH 7.4 (prepared from Sigma chemicals, Sigma-Aldrich, St Louis, Mo.). Uptake experiments were carried out at 37±1° C. in 50 μl of HK buffer (pH 7.4) containing the probe substrate and the TA or vehicle control (water).
(§4) After the experiment, cells were washed twice with ice cold, 100 μl of HK buffer and lysed with 50 μl of 0.1 M NaOH (1 mM CaCl2) in 5% SDS in the case of OATP1B3). Fluo-3 transport (OATP1B3) was determined by measuring fluorescence using 485 nm and 520 nm as the excitation and emission wavelengths, respectively. Radiolabelled probe substrate transport was determined by measuring an aliquot (35 μl) from each well for liquid scintillation counting.
(§5) Uptake of the probe substrate in control cells provided background activity values for all data points. Incubation without TA or reference inhibitor (solvent only) provided 100% activity values. A reference inhibitor served as positive control for inhibition.
(§6) The amount of translocated probe substrate was determined for each well in cpm or RFU. Relative activities were calculated from the equation:
(§7) [formula] A: amount of translocated substrate in the presence of TA in transfected cells B: amount of translocated substrate in the presence of TA in control cells C: amount of translocated substrate in the presence of solvent in transfected cells D: amount of translocated substrate in the presence of solvent in control cells Calculation of Fold Accumulation Values
(§8) In uptake transporter inhibition assays, the IC50 (μM) was calculated, where applicable. […]

Series [3] concerns the target T2, OATP1B1 (Homo sapiens, UniProt Q9Y6L6).
T2 sequence (Q9Y6L6 1-691): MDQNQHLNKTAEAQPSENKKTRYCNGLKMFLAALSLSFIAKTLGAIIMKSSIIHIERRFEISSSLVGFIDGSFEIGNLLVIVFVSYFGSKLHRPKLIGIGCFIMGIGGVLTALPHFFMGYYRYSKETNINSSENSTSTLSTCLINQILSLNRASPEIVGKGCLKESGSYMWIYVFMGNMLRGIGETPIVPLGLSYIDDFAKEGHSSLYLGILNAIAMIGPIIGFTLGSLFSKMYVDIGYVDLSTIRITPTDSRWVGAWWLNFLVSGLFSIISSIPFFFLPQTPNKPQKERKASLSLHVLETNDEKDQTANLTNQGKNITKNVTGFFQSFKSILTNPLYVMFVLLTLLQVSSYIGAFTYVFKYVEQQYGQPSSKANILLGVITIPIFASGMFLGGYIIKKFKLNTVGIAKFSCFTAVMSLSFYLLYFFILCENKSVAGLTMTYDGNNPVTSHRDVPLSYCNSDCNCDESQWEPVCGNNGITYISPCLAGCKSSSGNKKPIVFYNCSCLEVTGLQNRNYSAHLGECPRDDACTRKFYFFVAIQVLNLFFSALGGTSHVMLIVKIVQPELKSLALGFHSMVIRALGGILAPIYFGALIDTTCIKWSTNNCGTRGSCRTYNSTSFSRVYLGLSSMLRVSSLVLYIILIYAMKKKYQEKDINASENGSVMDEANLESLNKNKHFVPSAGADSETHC
As to the kind of experiment: Uptake transporter inhibition assay, OATP1B1. It is filed as in vitro ADME. On the set-up: expressed in transfected cells; host or cells: HEK293 (protocol UPT-HEK293-OATP1B1-E217βG; control: mock-transfected HEK293 FT); key to maximum inhibition: NIO: No interaction observed. The settings on record: for maximum inhibition: 0.3-300 μM. How it is done: as §1, §2, §3, §4, §5, §6, §7, §8

Series [4] in a line: Stability at conventional extrusion temperature. The format is physicochemical. The conditions noted are these: 100-200° C.
For series [5], the target named is T1, OATP1B3. As to the kind of experiment: Substrate statement, OATP1B3. It is filed as in vitro ADME.
The nature of series [6]: Solubility of test article in water and methanol. It is filed as physicochemical. The conditions noted are these: 25° C.
Series [7] has as its target T2, OATP1B1. As to the kind of experiment: Substrate statement, OATP1B1. It is filed as in vitro ADME.

Each structure is given as a SMILES string. Entries after “also recorded” stand apart in the source; their conditions may differ.

Take `[O-][n+]1cccc(C(Cl)=NOCC(O)CN2CCCCC2)c1` (centres unmarked) [Arimoclomol, N-[2-hydroxy-3-(1-piperidinyl)-propoxy]-pyridine-1-oxide-3-carboximidoyl chloride]: the “Carr's Index” value in series [1] (drug substance) was 44.4%. In series [1] (drug substance), this compound had a bulk density of 0.214 g/cm3. Moreover, in series [1] (following 250 taps), the tapped density is recorded as 0.386 g/cm3. Moreover, the maximum inhibition entry at OATP1B3 [2] (Table 2), on OATP1B3 [2] (Table 5), at OATP1B1 [3] (Table 2) and on OATP1B1 [3] (Table 5) was “NIO” in each case. Further, at OATP1B3 [2] (applied concentrations), the “Influence on OATP1B3-mediated probe substrate accumulation (in words)” value is recorded as “did not influence; also recorded: not an inhibitor”. Moreover, on OATP1B1 [3] (applied concentrations), the “Influence on OATP1B1-mediated probe substrate accumulation (in words)” value was “did not influence; also recorded: not an inhibitor”. Also, the “Stability at conventional extrusion temperature” value in series [4] is reported as “not stable”. Further, the “Substrate of the transporter (in words)” value on OATP1B3 [5] and at OATP1B1 [7] was “not a substrate” throughout. Moreover, the Solubility in series [6] (methanol) is on record as 0.4 g/100 mL; in series [6] (water), 14 g/100 mL.
